Test results as given in patent US4218474A, “Derivatives of L- and DL-4-hydroxyphenylglycine” (Pfizer Inc., priority 1977, dated 1980).
Structures can show the parent of a compound that is named as a salt. Square brackets hold non-standard residues; d marks the D form. Peptide text beside a SMILES is read from it. Hpg = N[C@H](C(=O)O)c1ccc(O)cc1

Experiments:
[1] = system: pyruvate dehydrogenase enzyme; experiment: Increase in proportion of active form of pyruvate dehydrogenase (PDHa/PDHt) in hearts of fat-fed rats in vivo; details: 0.6 mg./kg. oral or sub-cutaneous; rat hearts removed after 11/2 hours; L-compounds; placebo ratio 0.12-0.21
Method: The ability of compounds of formula (II) to increase the proportion of the active form of the pyruvate dehydrogenase enzyme has been measured in the following test: Rats fed on a high fat diet as in the previous test, are treated either with placebo or with the compound of formula (II) by subcutaneous or intravenous injection or by oral administration. After 11/2 hours the rat hearts are removed and homogenized under conditions which minimize changes in the proportion of the pyruvate dehydrogenase enzyme […] which is present in the active form, as described by Whitehouse and Randle [Biochem. J., 134, 651 (1973)]. The total amount of the enzyme present (PDHt) and the amount which is present in the active form (PDHa) are assessed by a method similar to that described by Taylor et al. [J. Biol. Chem., 248, 73 (1973)]. The fat-feeding process is found to depress the ratio […] from a normal value of about 0.7 to a value in the range from 0.05 to 0.2. Treatment of fat-fed rats with L- and DL-compounds of formula (II) either parenterally or orally, increases this ratio in a dose-dependent manner. The increase in the […] ratio affected by the L-compounds of formula (II) at a dosage level of 0.6 mg./kg. via the oral or sub-cutaneous route is shown in the following Table: […]

[2] = system: pyruvate oxidation by diaphragm tissue from fat-fed rats; experiment: Stimulation of pyruvate oxidation by diaphragm tissue from fat-fed rats in vitro; format: cell-based; details: Rattus norvegicus, concentration of 0.5 mmoles, L-compounds
Method: Representative compounds of the formula (II) have been tested for their ability to increase the oxidation of glucose and/or pyruvate as follows: Diaphragm tissue is obtained from rats fed on a high fat diet similar to `Diet B` described by Zaragoza and Felber [Horm. Metab. Res., 2, 323 (1970)]. Pyruvate oxidation by such tissue is assessed by measurement of the rate of incorporation of carbon-14 from carbon-14-labelled pyruvate into carbon dioxide in vitro, as described by Bringolf [Eur. J. Biochem., 26, 360 (1972)]. The rate of pyruvate oxidation is depressed by 50%-75% compared with that by diaphragm tissue from rats fed on a normal diet. When the L- and DL-compounds of the formula (II) are added to the medium, they are found to stimulate pyruvate oxidation by diaphragm tissue from fat-fed rats in a dose dependent manner.

| SMILES | PDHa/PDHt ratio, compound [1] | activation at 500 µM [2] |
| --- | --- | --- |
| Cl.N[C@H](C(=O)NCc1ccc(O)cc1)c1ccc(O)cc1 [Example 1, (L)-N-(4-Hydroxybenzyl)-2-amino-2-(4-Hydroxyphenyl)acetamide hydrochloride] | 1.00 | 72% |
| CC(C)NC(=O)[C@@H](N)c1ccc(O)cc1 [Example 2, L-N-isopropyl-2-amino-2-(4-hydroxyphenyl)acetamide] | 0.65 | 108% |
| CC(C)(C)NC(=O)[C@@H](N)c1ccc(O)cc1 [Example 3] | 0.56 | 15% |
| C#CCNC(=O)[C@@H](N)c1ccc(O)cc1 [Example 4, L-N-propargyl-2-amino-2-(4-hydroxyphenyl)acetamide] | 0.73 | 82% |
| N[C@H](C(=O)NC1CCCC1)c1ccc(O)cc1 [Example 5, L-N-cyclopentyl-2-amino-2-(4-hydroxyphenyl)acetamide] | 0.88 | 23% |
| CCN(CC)CCNC(=O)[C@@H](N)c1ccc(O)cc1 [Example 6, L-N-(2-diethylamino)ethyl-2-amino-2-(4-hydroxyphenyl)acetamide] | 0.78 | 38% |
| CNC(=O)[C@@H](N)c1ccc(O)cc1.Cl [Example 13, (L)-N-methyl-2-Amino-2-(4-hydroxyphenyl)acetamide hydrochloride] | 0.55 | 45% |
| COCCNC(=O)[C@@H](N)c1ccc(O)cc1 [Example 14, L-N-(2-methoxyethyl)-2-amino-2-(4-hydroxyphenyl)acetamide] | 0.88 | 76% |
| COc1ccccc1OCC(O)CNC(=O)[C@@H](N)c1ccc(O)cc1 (stereo partly shown) [Example 15] | 0.25 | 55% |
| Cl.N[C@H](C(=O)N[C@@H](Cc1ccc(O)cc1)C(=O)O)c1ccc(O)cc1 [Example 16, N-[(L)-2-(4-Hydroxyphenyl)glycyl]-(L)-tyrosine hydrochloride] (H-[Hpg]-Tyr-OH) | 0.31 | 67% |
| N[C@H](C(=O)NCC(=O)O)c1ccc(O)cc1 [Example 17, N-[(L)-2-(4-hydroxyphenyl)glycyl]-glycine hydrochloride dioxanate] (H-[Hpg]-Gly-OH) | 0.31 | 41% |
